Experimental data from patent US5187165A, “Memory enhancing and analgesic 1,2,3a,8,8a-hexahydro-3a,8(and 1,3a,8)-di(and tri)methylpyrrolo[2,3-b]indoles” (priority 1988, dated 1993).
Where a name gives a salt, the structure may show the parent alone.

How the values were obtained:
norepinephrine uptake [1] = details: background statement; cited from earlier work
norepinephrine uptake [2] = assay type: biochemical; details: rat brain synaptosomes, 50 nM 3H-NE, 37° C., 5 min; read-out: Reuptake Inhibition of neurotransmitters, Norepinephrine
[3] = molecular target: T1, acetylcholinesterase (Brain AChE) (Rattus norvegicus, UniProt P37136); experiment: In Vitro Inhibition of Acetylcholinesterase Activity in Rat Striatum; assay type: biochemical
T1 construct: corpora striata dissected free, weighed and homogenized in 19 volumes; from tissue; host or cells: corpora striata of male Wistar rats, crude homogenate in phosphate buffer
T1 sequence (P37136 32-614): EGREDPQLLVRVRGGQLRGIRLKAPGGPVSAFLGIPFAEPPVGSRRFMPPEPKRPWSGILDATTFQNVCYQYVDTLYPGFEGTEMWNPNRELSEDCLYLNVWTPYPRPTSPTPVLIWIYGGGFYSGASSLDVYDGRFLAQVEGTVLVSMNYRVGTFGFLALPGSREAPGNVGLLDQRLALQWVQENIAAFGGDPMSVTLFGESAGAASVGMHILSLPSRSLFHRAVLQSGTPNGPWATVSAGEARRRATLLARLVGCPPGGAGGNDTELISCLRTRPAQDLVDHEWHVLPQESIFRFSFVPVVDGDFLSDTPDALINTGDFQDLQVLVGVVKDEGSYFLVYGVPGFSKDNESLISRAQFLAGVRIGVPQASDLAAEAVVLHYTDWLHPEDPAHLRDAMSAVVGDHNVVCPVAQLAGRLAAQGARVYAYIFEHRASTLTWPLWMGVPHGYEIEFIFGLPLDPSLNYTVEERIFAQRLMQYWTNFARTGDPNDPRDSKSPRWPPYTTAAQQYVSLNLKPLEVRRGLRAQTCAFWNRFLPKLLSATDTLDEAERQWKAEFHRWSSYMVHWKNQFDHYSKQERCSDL
Description: (§1) Cholinesterases are found throughout the body, both in the brain and in serum. However, only brain acetylcholinesterase (AChE) distribution is correlated with central cholinergic innervation. […] We have determined in vitro inhibition of acetylcholinesterase activity in rat striatum and in vitro inhibition of butrylcholinesterase activity in human serum according to the methods described below.
The method described below was used in this invention for assaying cholinesterase activity. This is a modification of the method of Ellman et al., Biochem. Pharmacol. 7, 98 (1961).
1. 0.05M Phosphate buffer, pH 7.2
(§2) (a) 9.9 mg 5,5-dithiobisnitrobenzoic acid (DTNB) (0.25 mM)
(b) 99 mg s-acetylthiocholine chloride (5 mM)
(§3) (c) q.s. to 100 ml with 0.05M phosphate buffer, pH 7.2 (reagent 1)
Male Wistar rats are decapitated, brains rapidly removed, corpora striata dissected free, weighed and homogenized in 19 volumes (approximately 7 mg protein/ml) of 0.05M phosphate buffer, pH 7.2 using a Potter-Elvehjem homogenizer. A 50 microliter aliquot of the homogenate is added to 50 microliter vehicle of various concentrations of the test drug and preincubated for 10 minutes at room temperature.
1. For routine IC50 determinations the Abbott Bichromatic Analyzer, ABA-100, is used to determine acetylcholinesterase activity.
Incubation temperature: 30° C.
Following the 10 minute preincubation of the tissue (enzyme) with the inhibitor, the samples are mixed with the substrate chromogen buffer by the ABA-100. Using the indicated instrument settings the ABA-100 automatically reads the color reaction and prints out the results in enzyme units after 15 minutes.
2. The enzyme activity can also be measured with Gilford 250 spectrophotometer. This method is used for more accurate kinetic measurments.
Reagents are added to the reference and sample side of a split curvette as follows.
The uninhibited activity of the enzyme (tissue homogenate) is first determined. Test drugs are made up in a suitable solvent and added in suitable dilutions to the buffer vehicle. The reaction rate is determined by the slope of the recorded absorbance change. The actual rate (moles/liter/min) can be calculated as described in the following formula
rate(moles/liter/min)=slope/(1.36×10^4).

[4] = tested on: scopolamine-induced memory deficit; experiment: Dark Avoidance Assay (scopolamine induced memory deficit reversal); assay type: in vivo, mice; details: Mus musculus, sc, 24 h, read-out: % of Animals with Scopolamine Induced Memory Deficit Reversal
Procedure: In this assay mice are tested for their ability to remember an unpleasant stimulus for a period of 24 hours. A mouse is placed in a chamber that contains a dark compartment; a strong incandescent light drives it to the dark compartment, where an electric shock is administered through metal plates on the floor. The animal is removed from the testing apparatus and tested again, 24 hours later, for the ability to remember the electric shock.
If scopolamine, an anticholinergic that is known to cause memory impairment, is administered before an animal's initial exposure to the test chamber, the animal re-enters the dark compartment shortly after being placed in the test chamber 24 hours later. This effect of scopolamine is blocked by an active test compound, resulting in a greater interval before re-entry into the dark compartment.
The results for an active compound are expressed as the percent of a group of animals in which the effect of scopolamine is blocked, as manifested by an increased interval between being placed in the test chamber and re-entering the dark compartment.

[5] = molecular target: T2, butyrylcholinesterase (Serum AChE) (Homo sapiens, UniProt P06276); experiment: In Vitro Inhibition of Butyrylcholinesterase Activity in Human Serum; assay type: biochemical
T2 construct: A vial of lyophilized human serum; purchased Biodynamics, Houston, Tex; (Precilip); host or cells: lyophilized human serum, reconstituted in water; enzyme not purified
T2 sequence (P06276 29-602): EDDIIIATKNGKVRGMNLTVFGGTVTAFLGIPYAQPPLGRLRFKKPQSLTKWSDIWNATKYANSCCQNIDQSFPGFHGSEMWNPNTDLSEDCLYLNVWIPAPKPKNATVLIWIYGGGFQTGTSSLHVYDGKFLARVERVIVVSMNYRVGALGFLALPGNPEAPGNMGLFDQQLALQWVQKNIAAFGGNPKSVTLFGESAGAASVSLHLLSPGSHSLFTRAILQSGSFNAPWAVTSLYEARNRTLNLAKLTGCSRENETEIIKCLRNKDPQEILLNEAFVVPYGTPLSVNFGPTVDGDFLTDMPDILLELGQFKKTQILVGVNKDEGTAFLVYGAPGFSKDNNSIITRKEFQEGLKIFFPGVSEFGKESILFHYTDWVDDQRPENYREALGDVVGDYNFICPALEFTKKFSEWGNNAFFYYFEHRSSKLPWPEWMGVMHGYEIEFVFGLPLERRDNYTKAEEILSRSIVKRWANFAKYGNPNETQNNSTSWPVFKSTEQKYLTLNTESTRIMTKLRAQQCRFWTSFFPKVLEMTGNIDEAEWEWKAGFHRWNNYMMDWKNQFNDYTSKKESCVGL
Description: as §1
This assay can be used in conjunction with the acetylcholinesterase assay to determine the enzyme selectivity of various chloinesterase inhibitors.
Butyrylcholinesterase (BChE), which is sometimes called pseudocholinesterase, preferentially hydrolyzes butyrylcholine. This enzyme is found in the highest amounts in serum, but its physiological role is not known.
as §2
(b) 113 mg s-butyrylthiochloine chloride (5 mM)
as §3
A vial of lyophilized human serum (Precilip, Biodynamics, Houston, Tex. is reconstituted in 3 ml of distilled water. A 10 microliter aliquot of this suspension is added to 90 microliter of the vehicle or various concentrations of the test drug and preincubated for 10 minutes at room temperature.
Substantially the same procedure is used as described above in Section C of the Procedure used for determining the inhibition of acetylcholinsterase activity.

yohimbine toxicity = experiment: animal or person; assay type: in vivo, mice; details: for ED50: Mus musculus, po, 18 h, read-out: YTP ED50
Procedure: The potentiation of yohimbine toxicity is considered an additional test for screening antidepressant drugs. The method used in this invention is as follows:
Male mice weighing 20 to 30 grams are used. They are housed under standard laboratory conditions with free access to food and water. Compounds are dissolved in distilled water and a suitable surfactant is added in case of poor solubility. Yohimbine hydrochloride is dissolved in distilled water as well. Both compound and yohimbine are administered in a volume of […].
Compounds and vehicle are administered orally 60 minutes prior to a sublethal dose (30 mg/kg s.c.) of yohimbine hydrochloride which alone causes death in about […] of mice (4 out of 400). Ten mice per group are then placed in plastic cages (26×10×16 cm) with food and water available ad libitum. Mortality rate is assessed 18 hours postdosing. ED50 is defined as dose of drug causing death in 5/10 mice and is calculated by probit analysis.

[6] = tested on: tetrabenazine-induced ptosis; experiment: Prevention of Tetrabenazine-Induced Ptosis In Mice (TBZ); assay type: in vivo
Description: Tetrabenazine (TBZ) induces behavioral depression with concomitant ptosis in mice similar to reserpine. Antidepressant compounds, both monoamineoxidase inhibitors and tricyclics, are known to prevent or antagonize these effects and the degree of antagonism correlates with clinical efficacy. The prevention of TBZ-induced ptosis in mice is used as a preliminary screen for possible antidepressant activity. The method used in this invention is as follows:
Male mice weighing 20 to 30 grams are used in test groups of five subjects. All compounds are dissolved or suspended with a suitable surfactant in distilled water and administered in volumes of 10 ml/kg of body weight. TBZ solution is made from the methanesulfonate salt and the concentration is adjusted to enable administration of 60 mg/kg of base by intraperitoneal (i.p.) injection.
The pretreatment time is measured from the time of dosing to observation. Therefore, when a […] pretreat is utilized, drug and TBZ are given simultaneously. A control group receives solvent and TBZ at intervals identical to drug group. For a primary screen, the drug is administered i.p. and a group size of five is utilized. Eight animals/group are used for a dose range.
Thirty minutes after TBZ, the subjects are placed in individual plastic containers (10.5×8×6 inches) in the presence of white noise and one minute after the transfer, they are scored for ptosis on the following scale: Eyes closed=4, eyes 3/4 closed=3, eyes 1/2 closed=2, eyes 1/4 closed=1, eyes open=0. The total score for each group of five in a primary screen will, therefore, be from 0 to 20 and these scores are used as indications of drug activity.
The vehicle control group score is used as a determinant of the validity of each test. If the control score is less than 17, the results are discarded and the test repeated. The calculation of percent inhibition of ptosis is: [formula]
Linear regression analysis is used to estimate ED50 values and 95% confidence intervals.

Acute toxicity (LD50) = assay type: in vivo; details: death within 24 hours; for LD50: i.p., 1440 min; for LD50 at 24 h: in vivo, ip
Procedure: LD50 is determined by the dose (mg/kg) at which 50% of the test animals die within 24 hours. In many cases this dose is an approximation.

[7] = molecular target: T2, butyrylcholinesterase (Serum AChE); details: background statement; cited from earlier work
butyrylcholinesterase = details: ex vivo; cited from earlier work

Q: For `CC(COc1ccccc1)N(CCCl)Cc1ccccc1` (centres unmarked) [phenoxybenzamine], which “inhibition of NE uptake” value (norepinephrine uptake [1]) is on record?
A: inhibited

Q: Which results are given for `C[C@H](NC(=O)Oc1ccc2c(c1)[C@]1(C)CCN(C)[C@@H]1N2C)c1ccccc1` (relative stereo) [(3aS-cis)-1,2,3,3a,8,8a-Hexahydro-1,3a,8-trimethylpyrrolo[2,3-b]indol-5-ol,[(S*)-(1-phenyl)ethyl] carbamate ester]?
A: IC50 (norepinephrine uptake [2]): 2200 nM; IC50 [3]: 3100 nM; responders at 0.31 mg/kg [4]: 20%; IC50 [5]: > 1 mM; ED50 (yohimbine toxicity): 30 mg/kg; % Inhibition, TBZ ([6]; 20 mg/kg): 35%; LD50 (Acute toxicity (LD50)): < 80 mg/kg; LD50 at 24 h (Acute toxicity (LD50)): > 40 mg/kg

Q: With `CC(C)NP(=O)(NC(C)C)OP(=O)(NC(C)C)NC(C)C` [ISO-OMPA, tetraisopropyl pyrophosphoramide] as the compound, how does the “selectivity of inhibition of butyrylcholinesterase” value [7] read?
A: selective inhibitors of butyrylcholinesterase

Q: And the “cholinomimetic effects correlated with butyrylcholinesterase inhibition” value (butyrylcholinesterase)?
A: not correlated with any significant acute chloinomimetic effects

Q: With `CN1CC[C@@]2(C)c3cc(OC(=O)Nc4ccncc4)ccc3N(C)[C@@H]12` [(3aS-cis)-1,2,3,3a,8,8a-Hexahydro-1,3a,8-trimethylpyrrolo[2,3-b]indol-5-ol,4-pyridinyl carbamate ester] as the compound, how does the IC50 (norepinephrine uptake [2]) read?
A: > 20000 nM

Q: What about the responders at 0.31 mg/kg [4] of the same compound?
A: 27%

Q: And the LD50 at 24 h (Acute toxicity (LD50))?
A: ~40 mg/kg

Q: For `C[C@@H](NC(=O)Oc1ccc2c(c1)[C@]1(C)CCN(C)[C@@H]1N2C)c1ccccc1` (relative stereo) [(3aS-cis)-1,2,3,3a,8,8a-Hexahydro-1,3a,8-trimethylpyrrolo[2,3-b]indol-5-ol,[(R*)-(1-phenyl)ethyl] carbamate ester], which IC50 (norepinephrine uptake [2]) is on record?
A: 12000 nM

Q: And the IC50 [3]?
A: 1200 nM

Q: What about the responders at 1.25 mg/kg [4] of the same compound?
A: 67%

Q: And the IC50 [5]?
A: 0.0009 mM

Q: What about the ED50 (yohimbine toxicity) of the same compound?
A: 16.1 mg/kg

Q: And the “% Inhibition, TBZ” value ([6]; 20 mg/kg)?
A: 50%

Q: And the LD50 at 24 h (Acute toxicity (LD50))?
A: ~40 mg/kg

Q: Which “inhibition of NE uptake” value (norepinephrine uptake [1]) does the source give for `C[C@@H]1O[C@@H](O[C@H]2C[C@@H](O)[C@]3(CO)[C@H]4[C@H](O)C[C@]5(C)[C@@H](C6=CC(=O)OC6)CC[C@]5(O)[C@@H]4CC[C@]3(O)C2)[C@H](O)[C@H](O)[C@H]1O` [ouabain] here?
A: inhibited

Q: With `CN1CC[C@@]2(C)c3cc(OC(=O)Nc4cccc(Cl)c4)ccc3N(C)[C@@H]12` [(3aS-cis)-1,2,3,3a,8,8a-Hexahydro-1,3a,8-trimethylpyrrolo[2,3-b]indol-5-ol,3-chlorophenyl carbamate ester] as the compound, how does the IC50 (norepinephrine uptake [2]) read?
A: 1800 nM

Q: What about the IC50 [3] of the same compound?
A: 600 nM

Q: What about the responders at 5 mg/kg [4] of the same compound?
A: 20%

Q: And the IC50 [5]?
A: > 1 mM

Q: And the “% Inhibition, YTP” value (yohimbine toxicity; mice, oral, 80 mg/kg)?
A: 63%

Q: And the “% Inhibition, TBZ” value ([6]; 60 mg/kg)?
A: 45%

Q: And the LD50 at 24 h (Acute toxicity (LD50))?
A: > 80 mg/kg

Q: For `COC(=O)[C@H]1[C@@H](OC(=O)c2ccccc2)C[C@@H]2CC[C@H]1N2C` [cocaine], which “inhibition of NE uptake” value (norepinephrine uptake [1]) is on record?
A: potently inhibited

Q: For `CCN(CC)C(C)CN1c2ccccc2Sc2ccccc21` (centres unmarked) [Ethopropazine], which “selectivity of inhibition of butyrylcholinesterase” value [7] is on record?
A: selective inhibitors of butyrylcholinesterase

Q: Which IC50 [3] does the source give for `CN1CC[C@@]2(C)c3cc(OC(=O)NC4CCCCC4)ccc3N(C)[C@@H]12` [(3aS-cis)-1,2,3,3a,8,8a-Hexahydro-1,3a,8-trimethylpyrrolo[2,3-b]indol-5-ol,cyclohexyl carbamate ester] here?
A: 900 nM

Q: And the responders at 0.16 mg/kg [4]?
A: 31%

Q: And the IC50 [5]?
A: > 1 mM

Q: And the “% Inhibition, TBZ” value ([6]; 1.25 mg/kg)?
A: 20%

Q: What about the LD50 (Acute toxicity (LD50)) of the same compound?
A: < 10 mg/kg

Q: What about the LD50 at 24 h (Acute toxicity (LD50)) of the same compound?
A: > 5 mg/kg

Q: With `COC(=O)[C@@H]1[C@H]2C[C@H]3c4[nH]c5ccccc5c4CCN3C[C@@H]2CC[C@@H]1O` [yohimbine hydrochloride, reference compound] as the compound, how does the “death in mice of yohimbine hydrochloride alone” value (yohimbine toxicity; 30 mg/kg s.c., alone (4 out of 400 mice)) read?
A: about 1%
